Earlier results in patent US20230190668A1, “SLOW-RELEASE MEDICAL PLASTER” (FIDIA FARMACEUTICI S.P.A., priority 2020, published 2023).
Counter-ions that a name gives are not always drawn. Like-named read-outs stand apart in the source and are kept apart here.

Details: same matrix, active ingredient amount and excipients, 24 hours, without BHA

release from medical plaster with PSA matrix of Eudragit NE40 and citric acid ester (sodium salt)	SMILES	release from medical plaster with PSA matrix of Eudragit NE40 and citric acid ester
–	O=C(O)Cc1ccccc1Nc1c(Cl)cccc1Cl [diclofenac DEA salt, diclofenac diethylammonium salt]	released in a constant, continuous, prolonged and therapeutically effective way for 24 hours
released in a minimal way	O=C(O)Cc1ccccc1Nc1c(Cl)cccc1Cl [diclofenac sodium salt]	–
